# Reference: patent US20190106498A1, “TREATMENT FOR ACUTE MYELOID LEUKEMIA” (priority 2017, published 2019)
# What was measured:
# LSCs = assay: CD70 expression on LSCs of AML patients treated with HMA; format: in vivo, human; conditions: newly diagnosed AML patients after HMA treatment
# Procedure: (FIG. 2A) Representative FACS plots of CD70 expression on lin-CD90+CD34+CD38− AML stem/progenitor cells after culture in the presence or absence of 0.5 mM decitabine (D) or vehicle (Veh). Isotype: grey; CD70: black. (FIG. 2B) Cell Viability. (FIG. 2C) Fold change ΔMFI CD70 and (FIG. 2D) mRNA CD70 expression (AML: n=9-15; healthy: n=3). (FIG. 2E) Representative FACS plot and (FIG. 2F) fold change ΔMFI CD70 on stem/progenitor cells in the peripheral blood of AML patients at diagnosis and after 1 cycle of decitabine or azacitidine treatment (D(5), 20 mg/kg, daily for 5 days; A(7), 75 mg/m^2, daily for 7 days).
# AML = conditions: aza alone; cited from earlier work
smiles,measurement,setting,value
Nc1ncn([C@@H]2O[C@H](CO)[C@@H](O)[C@H]2O)c(=O)n1 [azacitidine],CD70 expression on LSCs compared to level at diagnosis,LSCs,increase in CD70 expression
same,response rate,AML,approximately 25%
